Experimental findings from patent publication US7288256B1, “T cell epitopes of the major allergens from dermatophagoides (house dust mite)” (Merck Patent GmbH, priority 1991, dated 2007) are described below.

Residues, ends and D or L forms follow the SMILES beside them.

Series [1] in a line: pH-stability profile of candidate peptides (percent degradant peak area by HPLC). As to conditions: for solution stability in equal concentration combination: 3, 2 and 1 mg/ml per peptide, 24 hours at about 5° C. and about 22° C., common window within pH 6 to pH 8. How it is done: The concentration of filtered peptide solutions was determined by HPLC analysis. In this experiment, the solubility of peptide at each pH is defined as the amount of peptide remaining in solution after filtration through a membrane filter having a 0.2 micrometer pore size. The extent of degradation of peptides was estimated by calculating the percent of total degradant peak area over the total peak area.

Series [2] is described as follows: pH-solubility profile of candidate peptides (HPLC of filtrate). The class given is physicochemical. The note with it: for solubility thermodynamic at 24 h: at a pH in the pH range of pH 6 to pH 8, 50 mM sodium phosphate, about 22° C.; for solubility (in words, against the superior solubility standard of 3 mg/ml): development of DPII-22.14 from DpII-22. As for the experimental part:
Stock solution A: 0.66 g […] of monobasic sodium phosphate monohydrate U.S.P. and 50 mg EDTA disodium dihydrate, U.S.P. were dissolved in 100 mL of WFI. The solution was filtered through a 0.2 micron filter
Stock solution B: 0.71 g […] of dibasic sodium phosphate U.S.P. were disolved in 100 ml WFI. The solution was filtered through a 0.2 micron filter.
Dispersions A and B were sonicated for 2 minutes for good homogeneity. A small volume was pipetted from each dispersion into a labeled eppendoff vial according to the following volume ratio:
The resultant solutions/suspensions were stored in the dark at about 22° C.±2 for 24 hours without agitation. The solutions were filtered and filtrates were analyzed for pH and peptide concentration.

Regarding `CC[C@H](C)[C@H](NC(=O)CNC(=O)[C@H](CCC(=O)O)NC(=O)[C@@H](N)CC(=O)O)C(=O)N[C@@H](CCCCN)C(=O)N[C@@H](CC(=O)O)C(=O)N[C@@H](CC(C)C)C(=O)N[C@@H](CC(=O)O)C(=O)N[C@@H](C)C(=O)N[C@@H](Cc1ccccc1)C(=O)N[C@@H](CCCNC(=N)N)C(=O)N[C@@H](Cc1c[nH]cn1)C(=O)N[C@@H](Cc1ccc(O)cc1)C(=O)N[C@@H](CC(=O)O)C(=O)NCC(=O)N[C@@H](CCCNC(=N)N)C(=O)N[C@H](C(=O)N[C@H](C(=O)N[C@H](C(=O)N[C@@H](CCC(N)=O)C(=O)N[C@@H](CCCNC(=N)N)C(=O)N[C@@H](CC(=O)O)C(=O)N[C@@H](CC(N)=O)C(=O)NCC(=O)N[C@@H](Cc1ccc(O)cc1)C(=O)N[C@@H](CCC(=O)O)C(=O)O)[C@@H](C)CC)[C@@H](C)CC)[C@@H](C)O` [DP I-26.6] (H-DEGIKDLDAFRHYDGRTIIQRDNGYE-OH; N-terminus and C-terminus assumed), the “solution stability in equal concentration combination” value in series [1] was “acceptable solution stability”. In series [2], the solubility (thermodynamic) – broadly, the concentration in solution at equilibrium with solid – at 24 h was more than 3000 µg/mL.

Take `CC[C@H](C)[C@H](NC(=O)[C@H](CO)NC(=O)[C@H](C)NC(=O)[C@H](CCCCN)NC(=O)[C@@H](NC(=O)[C@H](CCC(=O)O)NC(=O)[C@@H](NC(=O)[C@H](CCCCN)NC(=O)[C@H](C)NC(=O)[C@@H](NC(=O)[C@H](CCCCN)NC(=O)[C@@H](NC(=O)[C@H](CC(N)=O)NC(=O)[C@H](CCC(N)=O)NC(=O)[C@H](CC(N)=O)NC(=O)[C@H](C)NC(=O)[C@H](CCC(=O)O)NC(=O)[C@H](Cc1ccccc1)NC(=O)[C@@H](NC(=O)[C@H](C)NC(=O)[C@H](CCC(=O)O)NC(=O)[C@H](CC(C)C)NC(=O)[C@H](CCC(N)=O)NC(=O)[C@@H](N)CCCCN)C(C)C)[C@@H](C)O)[C@@H](C)O)[C@@H](C)CC)[C@@H](C)CC)C(=O)N[C@@H](CC(=O)O)C(=O)NCC(=O)N[C@@H](CC(C)C)C(=O)N[C@@H](CCC(=O)O)C(=O)N[C@H](C(=O)N[C@@H](CCCCN)C(=O)O)C(C)C` [DP II-22.2] (H-KQLEAVFEANQNTKTAKIEIKASIDGLEVK-OH): in series [1] (single peptide, aqueous buffer, pH 6 to pH 8, development of DPII-22.14), the “stability (in words)” value is given as “stability improved substantially”. Further, in series [2], the “solubility (in words, against the superior solubility standard of 3 mg/ml)” value is recorded as “solubility did not reach the standard”.

In the case of `CC(C)C[C@H](NC(=O)[C@H](CCC(=O)O)NC(=O)[C@H](CCCCN)NC(=O)[C@@H](N)CC(=O)O)C(=O)N[C@@H](CCC(=O)O)C(=O)N[C@@H](C)C(=O)N[C@H](C(=O)N[C@@H](Cc1ccccc1)C(=O)N[C@@H](CCC(=O)O)C(=O)N[C@@H](C)C(=O)N[C@@H](CC(N)=O)C(=O)N[C@@H](CCC(N)=O)C(=O)N[C@@H](CC(N)=O)C(=O)N[C@H](C(=O)N[C@@H](CCCCN)C(=O)N[C@H](C(=O)N[C@@H](C)C(=O)N[C@@H](CCCCN)C(=O)N[C@@H](C)C(=O)N[C@@H](CCC(=O)O)C(=O)O)[C@@H](C)O)[C@@H](C)O)C(C)C` [DP II-22.14] (H-DKELEAVFEANQNTKTAKAE-OH; N-terminus and C-terminus assumed), the “solution stability in equal concentration combination” value in series [1] is given as “acceptable solution stability”. The compound also yielded a solubility (thermodynamic) at 24 h in series [2] of more than 3000 µg/mL.

With `CC[C@H](C)[C@H](NC(=O)[C@H](CCC(=O)O)NC(=O)[C@@H](NC(=O)[C@H](CCCCN)NC(=O)[C@H](C)NC(=O)[C@@H](NC(=O)[C@H](CCCCN)NC(=O)[C@@H](NC(=O)[C@H](CC(N)=O)NC(=O)[C@H](CCC(N)=O)NC(=O)[C@H](CC(N)=O)NC(=O)[C@H](C)NC(=O)[C@H](CCC(=O)O)NC(=O)[C@H](Cc1ccccc1)NC(=O)[C@@H](NC(=O)[C@H](C)NC(=O)[C@H](CCC(=O)O)NC(=O)[C@H](CC(C)C)NC(=O)[C@H](CCC(N)=O)NC(=O)[C@H](CCCCN)NC(=O)[C@@H](N)CC(=O)O)C(C)C)[C@@H](C)O)[C@@H](C)O)[C@@H](C)CC)C(=O)N[C@@H](CCCCN)C(=O)N[C@@H](C)C(=O)N[C@@H](CO)C(=O)N[C@H](C(=O)N[C@@H](CC(=O)O)C(=O)N[C@@H](CCC(=O)O)C(=O)O)[C@@H](C)CC` [DP II-22.5] (H-DKQLEAVFEANQNTKTAKIEIKASIDE-OH; N-terminus and C-terminus assumed), the “solubility (in words, against the superior solubility standard of 3 mg/ml)” value in series [2] is reported as “very soluble”.
